The values below come from US9745310B2 (SK BIOPHARMACEUTICALS CO., LTD., priority 2015, dated 2017).

human mGluR5 receptor, sequence (P41594 21-1212): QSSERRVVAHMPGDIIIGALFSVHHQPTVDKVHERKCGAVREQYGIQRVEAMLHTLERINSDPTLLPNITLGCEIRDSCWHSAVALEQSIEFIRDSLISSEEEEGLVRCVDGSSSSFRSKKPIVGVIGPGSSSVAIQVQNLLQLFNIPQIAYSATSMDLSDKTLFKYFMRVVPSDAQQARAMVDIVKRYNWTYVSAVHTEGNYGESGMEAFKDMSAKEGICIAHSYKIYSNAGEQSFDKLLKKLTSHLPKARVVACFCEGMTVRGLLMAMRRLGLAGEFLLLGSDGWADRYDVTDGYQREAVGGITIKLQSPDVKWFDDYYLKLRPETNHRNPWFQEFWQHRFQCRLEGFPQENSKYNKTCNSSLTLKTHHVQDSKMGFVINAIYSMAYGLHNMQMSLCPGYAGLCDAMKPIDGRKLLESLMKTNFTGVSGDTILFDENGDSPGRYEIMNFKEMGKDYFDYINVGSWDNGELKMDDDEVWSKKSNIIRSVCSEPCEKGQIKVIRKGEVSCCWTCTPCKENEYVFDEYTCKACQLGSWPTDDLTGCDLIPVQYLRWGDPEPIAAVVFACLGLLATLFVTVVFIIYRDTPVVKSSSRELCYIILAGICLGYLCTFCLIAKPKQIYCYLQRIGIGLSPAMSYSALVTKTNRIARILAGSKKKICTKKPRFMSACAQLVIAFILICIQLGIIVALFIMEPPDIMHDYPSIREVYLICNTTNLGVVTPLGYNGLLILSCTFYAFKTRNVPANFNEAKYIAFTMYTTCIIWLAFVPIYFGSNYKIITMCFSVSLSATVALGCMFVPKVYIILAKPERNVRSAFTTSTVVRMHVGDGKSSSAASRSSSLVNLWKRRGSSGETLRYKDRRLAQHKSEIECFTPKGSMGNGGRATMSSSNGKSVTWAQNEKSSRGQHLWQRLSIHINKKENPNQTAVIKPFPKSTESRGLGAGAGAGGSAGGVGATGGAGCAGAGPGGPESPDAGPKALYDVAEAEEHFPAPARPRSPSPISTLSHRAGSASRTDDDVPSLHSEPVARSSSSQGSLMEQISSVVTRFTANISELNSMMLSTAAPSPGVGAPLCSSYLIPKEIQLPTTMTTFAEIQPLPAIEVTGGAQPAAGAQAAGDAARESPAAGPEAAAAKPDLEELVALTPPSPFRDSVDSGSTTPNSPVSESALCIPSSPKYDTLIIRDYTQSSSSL

The target of the assay is human mGluR5 receptor (Homo sapiens (Human), UniProt P41594). Kind of assay: Calcium influx assay based on fluorescence (mGluR5 PAM activity). The note with it: human mGluR5 receptor-overexpressed HEK293 cell line; L-glutamate EC20; Fluo-4, FLIPR. The procedure: Efficacy as a positive allosteric modulator (PAM) of mGluR5 of the compounds of the Examples was tested as follows:
Calcium Influx Assay Based on Fluorescence
Ca^2+ (calcium) influx assay is an experiment for measuring the activity of a positive allosteric modulator of mGluR5 receptor in which human mGluR5 receptor-overexpressed HEK293 cell line is used. The day before the experiment, cells were prepared in a cell culture medium (DMEM, 5% FBS) with the density of 80,000/well, and 100 μl of cells were dispensed into each well of a poly-D-lysine-coated 96-well plate. Cells were incubated in a 5% CO2, 37° C. incubator. The next day, the cell culture medium was removed from the plate, and 100 μl of 1× Fluo-4 calcium indicator diluted with a buffer (1× Hank's balanced salt solution, 20 mM HEPES, 2.5 mM probenecid) were added to each well and incubated at 37° C. for 1 hour. The compound stock solutions were prepared in 100% DMSO, and the compounds were serially diluted with a ¼ dilution to 6 or 7 concentrations (final concentration was 10 μM to 10 nM). The diluted compound solutions were added to the plate with 0.1 to 0.2% of final DMSO concentration. 1 hour after the addition of Fluo-4 calcium indicator, L-glutamate (EC20 concentration) and the test compound solutions were added to the plate, and Ca^2+ reaction was then measured by FLIPR at room temperature. The activity of the compounds was standardized on the basis of the results of maximum value-minimum value of fluorescent reaction, and the activity value was calculated on the basis that no activity on glutamate EC20 is 0% and the reaction to glutamate maximum value is 100%.
On to `Fc1cccc(OCc2cn3cc(-c4ccc(F)nc4)cnc3n2)c1` [Example 81, 2-[(3-fluorophenoxy)methyl]-6-(6-fluoro-3-pyridyl)imidazo[1,2-a]pyrimidine], for which the 50% effective concentration (EC50) was in the range of 0.1 to 0.5 µM.

As to `Oc1cccc(-c2cnc3nc(COc4ccccc4)cn3c2)c1` [Example 17, 6-(3-hydroxyphenyl)-2-phenoxymethylimidazo[1,2-a]pyrimidine], the EC50 lay within 0.5 to 1 µM.

As for `FC(F)(F)c1cc(Cl)ccc1-c1cnc2nc(COc3ccccn3)cn2c1` [Example 145, 6-[4-chloro-2-(trifluoromethyl)phenyl]-2-(2-pyridyloxymethyl)imidazo[1,2-a]pyrimidine], the EC50 lay within 0.1 to 0.5 µM.

Take `Cc1ccc(-c2cnc3nc(COc4ccc(F)cc4)cn3c2)c(N)c1` [Example 74, 2-[2-[(4-fluorophenoxy)methyl]imidazo[1,2-a]pyrimidin-6-yl]-5-methyl-aniline]: the EC50 is 0.1 to 0.5 µM.

As for `Fc1cccc(-c2cnc3nc(COc4ccccc4)cn3c2)c1F` [Example 7, 6-(2,3-difluorophenyl)-2-phenoxymethylimidazo[1,2-a]pyrimidine], the EC50 is 0.1 to 0.5 µM.

Regarding `Fc1ccc(OCc2cn3cc(-c4ccc(F)cc4F)cnc3n2)cc1` [Example 47, 6-(2,4-difluorophenyl)-2-(4-fluorophenoxymethyl)imidazo[1,2-a]pyrimidine], the EC50 was 0.1 to 0.5 µM.

As to `COc1cc(C#N)ccc1-c1cnc2nc(COc3ccc(F)cc3)cn2c1` [Example 68, 4-[2-[(4-fluorophenoxy)methyl]imidazo[1,2-a]pyrimidin-6-yl]-3-methoxy-benzonitrile], the EC50 was in the range of 0.1 to 0.5 µM.

With `Fc1ccc(OCc2cn3cc(-c4ccncc4Cl)cnc3n2)cc1` [Example 49, 6-(3-chloropyridin-4-yl)-2-(4-fluorophenoxymethyl)imidazo[1,2-a]pyrimidine], the EC50 was in the range of 0.5 to 1 µM.

For the molecule `Fc1ccc(OCc2cn3cc(-c4cncc(Cl)c4)cnc3n2)cc1` [Example 88, 6-(5-chloro-3-pyridyl)-2-[(4-fluorophenoxy)methyl]imidazo[1,2-a]pyrimidine], the EC50 lay within 0.1 to 0.5 µM.

With `Cc1c(F)cccc1-c1cnc2nc(COc3ccc(F)cn3)cn2c1` [Example 124, 6-(3-fluoro-2-methyl-phenyl)-2-[(5-fluoro-2-pyridyl)oxymethyl)imidazo[1,2-a]pyrimidine], the EC50 fell in the range of 0.1 to 0.5 µM.

In the case of `Fc1ccc(-c2cnc3nc(COc4cccnc4)cn3c2)cc1` [Example 146, 6-(4-fluorophenyl)-2-(pyridin-3-yloxymethyl)imidazo[1,2-a]pyrimidine], the EC50 was in the range of 0.5 to 1 µM.

As to `Oc1cc(F)ccc1-c1cnc2nc(COc3cccnc3)cn2c1` [Example 150, 6-(4-fluoro-2-hydroxyphenyl)-2-(pyridin-3-yloxymethyl)imidazo[1,2-a]pyrimidine], the EC50 was 0.5 to 1 µM.

Take `CCc1ccccc1-c1cnc2nc(COc3ccccn3)cn2c1` [Example 115, 6-(2-ethylphenyl)-2-(2-pyridyloxymethyl)imidazo[1,2-a]pyrimidine]: the EC50 is 0.1 to 0.5 µM.

Turning to `Oc1cc(F)ccc1-c1cnc2nc(COc3ccc(F)cc3)cn2c1` [Example 58, 5-fluoro-2-[2-[(4-fluorophenoxy)methyl]imidazo[1,2-a]pyrimidin-6-yl]phenol], the EC50 fell in the range of 0.1 to 0.5 µM.

Regarding `Fc1ccc(-c2cnc3nc(COc4ccnc(F)c4)cn3c2)c(F)c1` [Example 161, 6-(2,4-difluorophenyl)-2-(2-fluoropyridin-4-yloxymethyl)imidazo[1,2-a]pyrimidine], the EC50 lay within 0.1 to 0.5 µM.

With `Nc1ccccc1-c1cnc2nc(COc3cccc(F)c3)cn2c1` [Example 44, 6-(2-aminophenyl)-2-(3-fluorophenoxymethyl)imidazo[1,2-a]pyrimidine], the EC50 was in the range of 0.1 to 0.5 µM.

As for `Cc1c(F)cccc1-c1cnc2nc(COc3ccccn3)cn2c1` [Example 109, 6-(3-fluoro-2-methylphenyl)-2-(pyridin-2-yloxymethyl)imidazo[1,2-a]pyrimidine], the EC50 was 0.1 to 0.5 µM.

On to `Fc1ccc(-c2cnc3nc(COc4ccccn4)cn3n2)c(F)c1` [Example 180, 2-(2,4-difluorophenyl)-6-((pyridin-2-yloxy)methyl)imidazo[1,2-b][1,2,4]triazine], for which the EC50 lay in the range of 0.1 to 0.5 µM.

With `Oc1cc(-c2cnc3nc(COc4cccc(F)c4)cn3c2)ccc1F` [Example 43, 6-(4-fluoro-3-hydroxyphenyl)-2-(3-fluorophenoxymethyl)-imidazo[1,2-a]pyrimidine], the EC50 fell in the range of 0.1 to 0.5 µM.

Take `COc1cc(-c2cnc3nc(COc4ccccc4)cn3c2)ccc1F` [Example 21, 6-(4-fluoro-3-methoxyphenyl)-2-phenoxymethylimidazo[1,2-a]pyrimidine]: the EC50 is 0.5 to 1 µM.

With `COc1cc(F)ccc1-c1cnc2nc(COc3cncc(F)c3)cn2c1` [Example 155, 6-(4-fluoro-2-methoxyphenyl)-2-(5-fluoropyridin-3-yloxymethyl)imidazo[1,2-a]pyrimidine], the EC50 lay within 0.1 to 0.5 µM.

Turning to `Clc1ccc(-c2cnc3nc(COc4ccccc4)cn3c2)cc1` [Example 37, 6-(4-chlorophenyl)-2-phenoxymethylimidazo[1,2-a]pyrimidine], the EC50 was 0.5 to 1 µM.

In the case of `COc1cc(-c2cnc3nc(COc4ccccc4)cn3c2)c(F)cc1F` [Example 28, 6-(2,4-difluoro-5-methoxyphenyl)-2-phenoxymethylimidazo[1,2-a]pyrimidine], the EC50 fell in the range of 0.5 to 1 µM.

For `Fc1ccc(-c2cnc3nc(COc4ccccn4)cn3n2)c(C(F)(F)F)c1` [Example 186, 2-[4-fluoro-2-(trifluoromethyl)phenyl]-6-(2-pyridyloxymethyl)imidazo[1,2-b][1,2,4]triazine], the EC50 was in the range of 0.1 to 0.5 µM.

On to `[2H]c1c([2H])c([2H])c(OCc2cn3cc(-c4ccc(F)cc4)cnc3n2)c([2H])c1[2H]` [Example 59, 6-(4-fluorophenyl)-2-[(2,3,4,5,6-pentadeuteriophenoxy)methyl]imidazo[1,2-a]pyrimidine], for which the EC50 fell in the range of 0.1 to 0.5 µM.

On to `Cc1ccc(-c2cnc3nc(COc4ccc(F)cn4)cn3c2)c(C)c1` [Example 128, 6-(2,4-dimethylphenyl)-2-[(5-fluoro-2-pyridyl)oxymethyl)imidazo[1,2-a]pyrimidine], for which the EC50 lay in the range of 0.5 to 1 µM.

Take `OCc1cc(F)ccc1-c1cnc2nc(COc3ccc(F)cc3)cn2c1` [Example 97, [5-fluoro-2-[2-[(4-fluorophenoxy)methyl]imidazo[1,2-a]pyrimidin-6-yl]phenyl]methanol]: the EC50 lay within 0.1 to 0.5 µM.

In the case of `Oc1cc(-c2cnc3nc(COc4ccc(F)cc4)cn3c2)ccc1F` [Example 55, 2-fluoro-5-[2-[(4-fluorophenoxy)methyl]imidazo[1,2-a]pyrimidin-6-yl]phenol], the EC50 fell in the range of 0.1 to 0.5 µM.

On to `Cc1ccccc1-c1cnc2nc(COc3ccnc(F)c3)cn2n1` [Example 185, 2-(2-methylphenyl)-6-((2-fluoropyridin-4-yloxy)methyl)imidazo[1,2-b][1,2,4]triazine], for which the EC50 was in the range of 0.1 to 0.5 µM.

Regarding `Cc1ccccc1-c1cnc2nc(COc3cncc(F)c3)cn2c1` [Example 153, 6-(2-methylphenyl)-2-(5-fluoro-pyridin-3-yloxymethyl)imidazo[1,2-a]pyrimidine], the EC50 is 0.1 to 0.5 µM.

On to `COc1cc(C#N)ccc1-c1cnc2nc(COc3ccccc3)cn2c1` [Example 23, 6-(4-cyano-2-methoxyphenyl)-2-phenoxymethylimidazo[1,2-a]pyrimidine], for which the EC50 was in the range of 0.1 to 0.5 µM.

As to `Fc1ncccc1-c1cnc2nc(COc3ccccc3)cn2c1` [Example 29, 6-(2-fluoropyridin-3-yl)-2-phenoxymethylimidazo[1,2-a]pyrimidine], the EC50 lay within 0.1 to 0.5 µM.

`Nc1cc(-c2cnc3nc(COc4ccccn4)cn3c2)ccc1F` [Example 134, 2-fluoro-5-[2-(2-pyridyloxymethyl)imidazo[1,2-a]pyrimidin-6-yl]aniline]: the EC50 lay in the range of 0.1 to 0.5 µM.

On to `OCc1cc(C(F)(F)F)ccc1-c1cnc2nc(COc3ccccn3)cn2c1` [Example 142, [2-[2-(2-pyridyloxymethyl)imidazo[1,2-a]pyrimidin-6-yl]-5-(trifluoromethyl)phenyl]methanol], for which the EC50 lay in the range of 0.1 to 0.5 µM.

Consider `Cc1cc(F)ccc1-c1cnc2nc(COc3cncc(F)c3)cn2c1` [Example 154, 6-(4-fluoro-2-methylphenyl)-2-(5-fluoro-pyridin-3-yloxymethyl)imidazo[1,2-a]pyrimidine], for which the EC50 was 0.1 to 0.5 µM.

As for `Cc1cc(F)ccc1-c1cnc2nc(COc3ccnc(F)c3)cn2n1` [Example 184, 2-(4-fluoro-2-methylphenyl)-6-((2-fluoropyridin-4-yloxy)methyl)imidazo[1,2-b][1,2,4]triazine], the EC50 lay in the range of 0.1 to 0.5 µM.

Take `Fc1ccnc(OCc2cn3cc(-c4ccc(F)cc4C(F)(F)F)cnc3n2)c1` [Example 125, 2-[(4-fluoro-2-pyridyl)oxymethyl]-6-[4-fluoro-2-(trifluoromethyl)phenyl]imidazo[1,2-a]pyrimidine]: the EC50 lay in the range of 0.1 to 0.5 µM.

In the case of `Cc1cc(F)ncc1-c1cnc2nc(COc3ccccc3)cn2c1` [Example 38, 6-(6-fluoro-4-methyl-3-pyridyl)-2-phenoxymethylimidazo[1,2-a]pyrimidine], the EC50 was in the range of 0.1 to 0.5 µM.
